Patent US20240207202A1, “COMBINATION THERAPIES TARGETING MITOCHONDRIAL BIOGENESIS FOR CANCER THERAPY” (The Wistar Institute of Anatomy and Biology, priority 2015, published 2024)

Experiments:
Type in all cases: cell-based, human
[1] = tested on: BRAF-mutated resistant melanoma cell lines; assay: Induction of apoptosis and cell death by PSVue 643 staining in acquired drug resistant melanoma cell lines
Protocol: (§1) Adherent melanoma cells were harvested with 0.05% Trypsin-EDTA and were washed once with 1×DPBS. Cells were labeled with CellTrace™ Violet according to the manufacturer's protocol and were allowed to adhere to tissue culture plates overnight following the drug treatment. At indicated time points following the drug treatment, floating and adherent cells were pooled, washed with Hank's Buffered Salt Solution (HBSS) and then stained with CellROX Deep Red at 2.5 μM or MitoTracer Red at 0.25 μM for 1 h in a 37° C. humidified incubator supplied with 5% CO2. Cells were then pelleted, washed with DPBS, and stained with PSVue® 643 at 5 μM diluted in TES buffer for 5 min in the dark. Cells were then immediately subjected to FACS analysis using a BD LSR II flow cytometer and at least 5,000 cells per sample were acquired.
Labeling cells with Propidium Iodide and PSVue—Following centrifugation, cells were resuspended in 0.1 ml 1×PBS, co-stained with propidium iodide at 1 μg/ml and PSVue® 643 at 5 μM, and then stained with PSVue® 643 at 5 μM alone. Cell suspensions were kept in the dark at room temperature for 5 min. 0.2 ml 1×PBS supplemented with 10% FBS was added to each cell suspension and cells were immediately analyzed by BD LSRII.
Separation of live cells from dead cells including early apoptotic cells—Based on the fluorescence of PSVue 643, cells are separated into 2 subpopulations, live cells (PSVue 643Neg) and dead cells including early apoptotic cells (PSVue 643Pos).

[2] = tested on: mitochondrial DNA copy number; assay: Mitochondrial DNA copy number; details: WM9, Gamitrinib 1 μM combined with PLX4720 and PD0325901 or LGX818 and MEK162
Protocol: Mitochondria DNA copy number was measured by the ratio of a mitochondrial gene, mtDNA-3, and a nuclear gene, 18S rRNA. The mtDNA-3/18S rRNA ratio was quantified by qRT-PCR on an Applied Biosystems 7500 Fast Real-Time PCR System. The reaction mixtures (25 μL final volume) contained 12.5 μL Fast SYBR Green Master Mix, 500 nM of each primer and 10 ng genomic DNA. The reaction conditions were 95° C. for 20 s, followed by 45 cycles of 95° C. for 3 s and 60° C. for 30 s. The relative mtDNA copy number was analyzed by the 2-ΔΔCt method.

autophagic flux = assay: Autophagic flux in WM9 cells expressing mCherry-eGFP-LC3B; details: WM9, 72 h, Gamitrinib 1 μM or Spautin-1 10 μM combined with PLX4720 10 μM/PD0325901 1 μM
Protocol: WM9 cells stably expressing pLVO-Puro-mCherry-eGFP-LC3 were analyzed with a BD LSR II flow cytometer. Fluorescence of mCherry and eGFP was recorded to derive the ratio of mCherryheight over eGFP-height. This ratio indicates the autophagic flux.
Briefly, autophagic flux was assessed by FACS analysis of WM9 cells expressing the mCherry-eGFPLC3B construct that were transfected with the indicated siRNAs targeting autophagy and ER stress response and treated for 72 h with DMSO or the combination of PLX4720 at 10 μM and PD0325901 at 1 μM. The data represent the average of 2 biological replicates. Induction of apoptosis and cell death was assessed by PSVue 643 staining in WM9 cells expressing the mCherry-eGFP-LC3B construct transfected with the indicated siRNAs targeting autophagy and ER stress response and treated for 72 h with DMSO or the combination of PLX4720 at 10 μM and PD0325901 at 1 μM. Autophagic flux was assessed by FACS analysis of WM9 cells expressing the mCherry-eGFPLC3B construct treated for 72 h with Gamitrinib at 1 μM or Spautin-1 at 10 μM in combination with PLX4720 at 10 μM/PD0325901 at 1 μM. Cells treated with DMSO were used as the control for setting up the gate. Induction of apoptosis and cell death was assessed by PSVue 643 staining in WM9 cells treated for 72 h with Gamitrinib at 1 μM or Spautin-1 at 10 μM in combination with PLX4720 at 10 μM/PD0325901 at 1 μM. […]

mitochondrial mass = assay: Mitochondrial mass by MitoTracker Red; details: WM9, 72 h, Gamitrinib 1 μM combined with MAPK pathway inhibitors
Protocol: as §1

SOD2 = SOD2 expression in WM9 cells (qRT-PCR, immunoblot); details: WM9, 72 h, Gamitrinib 1 μM with MAPK pathway inhibitors
Protocol: (§2) One μg total mRNA was reverse transcribed using a Maxima First Strand cDNA Synthesis Kit for qRT-PCR (Thermo Fisher). Fast SYBR® Green Master Mix (Life Technologies) was used with cDNA template and primers to evaluate the expression of target genes and GAPDH. Primers used were purchased from Integrated DNA Technologies. Amplifications were performed using an Applied Biosystems® 7500 Real-Time PCR System (Life Technologies). All experiments were performed in triplicate. Expression ratios of controls were normalized to 1. Please see Extended Experimental Procedures for the list of PCR primer sequences.
Cells were washed with ice-cold PBS containing 100 μM Na3VO4 and scraped off culture dishes. After centrifugation, cell pellets were lysed in buffer containing 10 mM Tris-HCl, pH 7.8, 150 mM NaCl, 1 mM EDTA, 1% Nonidet P-40, 1 mM Na3VO4 and protease inhibitors (Roche complete protease inhibitor tablets). Lysates were cleared by micro-centrifugation and protein concentrations were determined with Protein Assay Dye Reagent Concentrate (Bio-Rad). For western blots, 25 μg of each lysate were run on 15-well 10% or 12% SDS-PAGE gels and transferred onto nitrocellulose membranes using a dye fast Trans-BlotR Turbo™ transfer system (Bio-Rad). […]

M-MITF = M-MITF gene expression by qRT-PCR in WM9 cells; details: WM9, 48 h, Gamitrinib 1 μM added to PLX4720 10 μM and PD0325901 1 μM
Protocol: as §2

Gamitrinib was tested, and the “cell death in combination therapy resistant (CR) cell line” value ([1]; 1 CR cell line (WM9 CR), Gamitrinib 1 and 2.5 μM, 48 h) was “significantly induced cell death”, the “resistant cell lines in which apoptosis and cell death was significantly induced” value ([1]; 23 resistant cell lines, 2.5 μM Gamitrinib, 72 hours) was 18 of 23 and the “BRAF inhibitor resistant (BR) cell lines in which cell death was significantly induced” value ([1]; BR cell lines, PLX4720 10 μM plus Gamitrinib 2.5 μM, 48 h) was 7 out of 9. For the same substance, the “mitochondrial DNA copy number” value [2] was “decreases in mitochondrial DNA copy number”, the autophagic flux (autophagic flux) was “decreased the autophagic flux” and the mitochondrial mass (mitochondrial mass) was “decreases”. For the same substance, the “SOD2 expression compared to MAPK pathway inhibitors alone, mRNA and protein” value (SOD2) was “up-regulation of SOD2” and the “M-MITF expression up-regulated by MAPK pathway inhibitors” value (M-MITF) was “further down-regulated”.
